Activity calls are given as the source filed them.
How the values were obtained:
[1] = cytotoxicity in HEK-293T NF-kB-Luc cells, dose response, cytotoxicity control for B/T-cell NF-kB inhibitor project, cell-based, uHTS hits (AID 489019); assay type: functional;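 note: IC50 reflects cytotoxicity as loss of cell viability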
[2] = test system: Jurkat; assay: antigen receptor-induced NF-kB inhibitors, dose response, Jurkat, luciferase reporter, luminescence, B- and T-cell (AID 489004); assay type: functional, cell-based; conditions: Homo sapiens;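 note: NF-kB luciferase reporter Jurkat cells stimulated with PMA plus ionomycin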
[3] = molecular target: T1, Microphthalmia-associated transcription factor (Homo sapiens, UniProt O75030); assay: TRPM1 promoter luciferase signal decrease, dose response, MITF inhibitor project, cell-based, SK-MEL-5, cherry-picked, set 3 (AID 493073); assay type: functional
T1 sequence (O75030 whole entry): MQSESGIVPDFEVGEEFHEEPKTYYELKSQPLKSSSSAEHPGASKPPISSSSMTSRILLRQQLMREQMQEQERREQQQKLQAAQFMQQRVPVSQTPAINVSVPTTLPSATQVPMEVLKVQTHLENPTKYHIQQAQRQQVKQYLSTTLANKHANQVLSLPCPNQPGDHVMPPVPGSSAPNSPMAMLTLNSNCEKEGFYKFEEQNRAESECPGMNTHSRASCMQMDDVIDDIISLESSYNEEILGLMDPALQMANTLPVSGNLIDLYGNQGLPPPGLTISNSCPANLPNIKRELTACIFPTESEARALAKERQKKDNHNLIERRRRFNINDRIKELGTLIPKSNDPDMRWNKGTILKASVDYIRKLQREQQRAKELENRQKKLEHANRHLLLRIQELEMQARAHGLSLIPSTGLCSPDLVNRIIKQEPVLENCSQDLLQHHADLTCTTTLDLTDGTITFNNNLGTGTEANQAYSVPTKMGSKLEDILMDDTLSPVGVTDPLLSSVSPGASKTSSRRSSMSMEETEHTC

[4] = test system: Candida albicans; assay: reversal of fluconazole resistance in C. albicans, dose response, CaCi-2 strain, Alamar Blue, dry powder, set 3 (AID 488907); assay type: functional, organism-based
[5] = test system: Vero; assay: cells; assay type: functional; conditions: Chlorocebus sabaeus
[6] = molecular target: Nucleotide-binding oligomerization domain-containing protein 2 (Homo sapiens, UniProt Q9HC29); assay: NOD2 signaling inhibitors, cell-based, luminescence, uHTS, HEK293 (AID 1566); assay type: functional
Sequence of Nucleotide-binding oligomerization domain-containing protein 2 (Q9HC29 whole entry, the tested form may be a part): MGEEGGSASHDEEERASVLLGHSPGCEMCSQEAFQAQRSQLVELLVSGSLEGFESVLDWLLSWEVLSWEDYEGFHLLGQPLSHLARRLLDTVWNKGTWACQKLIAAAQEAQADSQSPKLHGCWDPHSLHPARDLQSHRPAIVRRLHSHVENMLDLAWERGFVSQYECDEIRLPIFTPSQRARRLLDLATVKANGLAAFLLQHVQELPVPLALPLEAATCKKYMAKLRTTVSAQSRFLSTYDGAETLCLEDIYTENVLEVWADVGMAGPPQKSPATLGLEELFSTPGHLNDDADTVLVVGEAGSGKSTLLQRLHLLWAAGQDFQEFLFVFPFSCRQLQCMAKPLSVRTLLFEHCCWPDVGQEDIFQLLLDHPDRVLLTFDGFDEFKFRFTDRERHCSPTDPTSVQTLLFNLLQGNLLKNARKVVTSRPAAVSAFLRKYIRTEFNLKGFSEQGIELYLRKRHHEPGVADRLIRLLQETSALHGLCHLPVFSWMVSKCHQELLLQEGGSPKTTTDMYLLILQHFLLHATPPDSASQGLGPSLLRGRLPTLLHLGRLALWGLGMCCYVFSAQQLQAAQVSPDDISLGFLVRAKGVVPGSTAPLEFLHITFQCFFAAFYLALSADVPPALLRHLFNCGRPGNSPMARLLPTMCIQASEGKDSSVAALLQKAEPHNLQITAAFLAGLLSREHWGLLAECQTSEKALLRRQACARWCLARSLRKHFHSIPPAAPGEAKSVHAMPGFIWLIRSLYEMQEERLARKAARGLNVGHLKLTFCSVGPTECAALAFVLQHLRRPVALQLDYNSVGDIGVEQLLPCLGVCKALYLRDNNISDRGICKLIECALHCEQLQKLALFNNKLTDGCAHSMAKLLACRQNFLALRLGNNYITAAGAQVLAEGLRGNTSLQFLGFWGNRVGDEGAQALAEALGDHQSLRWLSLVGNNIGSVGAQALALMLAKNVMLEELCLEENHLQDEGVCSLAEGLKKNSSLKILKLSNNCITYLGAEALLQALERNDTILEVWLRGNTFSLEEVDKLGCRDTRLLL

[7] = molecular target: T2, Neuropeptide Y receptor type 2 (Homo sapiens, UniProt P49146); assay: Fluorescence-based cell-based high-throughput dose response assay for agonists of NPY-Y2. [Related pubchem assays: 1703 (Screening assay (CNGC inhibitors).), 1359 (Screening assay (NPY-Y2 potentiators or agonists).), 1304 (Screening assay (NPY-Y1 potentiators or agonists).), 1710 (Screening assay (NPY-Y2 agonists).), 1791 (Summary AID.)]; assay type: functional
T2 sequence (P49146 whole entry): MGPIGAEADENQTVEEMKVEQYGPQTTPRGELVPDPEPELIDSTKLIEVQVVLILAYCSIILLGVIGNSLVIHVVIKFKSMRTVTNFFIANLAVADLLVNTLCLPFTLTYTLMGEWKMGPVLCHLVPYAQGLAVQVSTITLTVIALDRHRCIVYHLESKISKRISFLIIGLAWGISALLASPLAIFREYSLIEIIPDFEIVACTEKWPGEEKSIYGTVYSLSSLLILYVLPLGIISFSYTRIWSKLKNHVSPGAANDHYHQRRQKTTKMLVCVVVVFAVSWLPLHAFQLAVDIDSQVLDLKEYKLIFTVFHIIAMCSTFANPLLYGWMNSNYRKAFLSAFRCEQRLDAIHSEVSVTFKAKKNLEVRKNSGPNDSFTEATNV

[8] = molecular target: T3, Neuropeptide Y receptor type 1 (Homo sapiens, UniProt P25929); assay: Fluorescence-based counterscreen for agonists of NPY-Y2: cell-based high-throughput dose response assay for agonists of NPY-Y1.; assay type: functional
T3 sequence (P25929 whole entry): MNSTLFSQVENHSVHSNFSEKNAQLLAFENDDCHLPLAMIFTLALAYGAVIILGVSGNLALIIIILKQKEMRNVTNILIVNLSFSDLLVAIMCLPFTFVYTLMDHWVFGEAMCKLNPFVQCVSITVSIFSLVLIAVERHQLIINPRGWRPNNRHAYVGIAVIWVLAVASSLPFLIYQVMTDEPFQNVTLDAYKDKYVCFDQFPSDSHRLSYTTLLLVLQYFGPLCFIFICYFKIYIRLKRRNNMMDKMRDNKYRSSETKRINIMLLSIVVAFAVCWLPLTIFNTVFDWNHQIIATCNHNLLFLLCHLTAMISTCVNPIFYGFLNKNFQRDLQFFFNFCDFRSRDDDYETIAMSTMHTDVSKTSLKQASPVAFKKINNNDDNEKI

[9] = test system: HEK293; assay: cells; assay type: functional, cell-based; conditions: Homo sapiens
[10] = test system: HEK293; assay: NOD1 signaling inhibitors, primary screen, cell-based, luminescence, uHTS (AID 1578); assay type: functional; conditions: Homo sapiens
[11] = HepG2 cell cytotoxicity, dose response, cytotoxicity control for non-replicating M. tuberculosis project (AID 489018); assay type: functional; conditions: Mycobacterium tuberculosis
[12] = THP-1 cell cytotoxicity, dose response, cytotoxicity control for non-replicating M. tuberculosis project (AID 489025); assay type: functional
[13] = test system: HEK293; assay: NOD2 signaling inhibitors in MDP-stimulated cells, cell-based, uHTS, luminescence (AID 2001); assay type: functional; conditions: Homo sapiens
[14] = cells; assay type: functional
[15] = test system: HEK293; assay: Fluorescence-based counterscreen for potentiators or agonists of NPY-Y2: cell-based high-throughput dose response assay to identify inhibitors of cyclic nucleotide gated ion channel (CNGC) activity. In this assay, the parental HEK293 cell line transfected with a cyclic-nucleotide gated ion channel (CNGC)-based cAMP sensor is used to measure inhibition of isoproterenol-induced CNGC activity by test compound.; assay type: functional; conditions: Homo sapiens
[16] = test system: HEK293; assay: cells; assay type: functional, cell-based; conditions: Homo sapiens; remark: listed apart in the source
[17] = test system: HEK293; assay: cells; assay type: functional, cell-based; conditions: Homo sapiens; remark: listed apart in the source
[18] = molecular target: Nuclear receptor subfamily 0 group B member 1 (Homo sapiens, UniProt P51843); assay: Luminescence-based cell-based high throughput dose response assay for inhibitors of the orphan nuclear receptor subfamily 0, group B, member 1 (DAX1; NR0B1). [Related pubchem assays (depositor defined):AID504766, AID504790]; assay type: functional
Sequence of Nuclear receptor subfamily 0 group B member 1 (P51843 whole entry): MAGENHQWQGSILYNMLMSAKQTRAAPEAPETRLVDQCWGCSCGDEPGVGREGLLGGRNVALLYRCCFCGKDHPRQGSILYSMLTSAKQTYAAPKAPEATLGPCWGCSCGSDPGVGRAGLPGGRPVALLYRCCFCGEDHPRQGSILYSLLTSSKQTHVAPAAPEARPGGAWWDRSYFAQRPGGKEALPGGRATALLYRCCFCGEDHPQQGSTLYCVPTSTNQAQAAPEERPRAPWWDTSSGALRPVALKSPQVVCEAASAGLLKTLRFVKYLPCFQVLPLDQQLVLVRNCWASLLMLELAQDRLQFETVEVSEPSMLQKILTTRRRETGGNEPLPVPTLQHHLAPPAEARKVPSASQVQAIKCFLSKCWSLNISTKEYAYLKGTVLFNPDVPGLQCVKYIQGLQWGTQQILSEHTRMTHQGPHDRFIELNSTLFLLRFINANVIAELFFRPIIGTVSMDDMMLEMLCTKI

[19] = test system: HEK293; assay: cells; assay type: functional, cell-based; conditions: Homo sapiens; remark: listed apart in the source

COc1ccc(/C=C2\SC(=O)N(CCCC(=O)Nc3cc(Cl)ccc3C(=O)O)C2=O)cc1
IC50 [1]: > 80 µM (inactive)
IC50 [2]: < 0.16 µM (active)
AC50 [3]: 0.528 µM (active)

O=C(c1ccc(Cl)cc1)N1CCN(c2ncccc2C(F)(F)F)CC1
AC50 [4]: 0.217 µM (active)

O=C(N/N=C/c1cccc2cccnc12)c1ccccc1O
CC50 [5]: 18.8 µM (active)
EC50 [6]: > 20 µM (inactive)
EC50 [7]: > 35.4 µM (not active)
EC50 [8]: > 35.4 µM (not active)
IC50 [9]: > 20 µM (inactive)
EC50 [10]: > 20 µM (inactive)
CC50 [11]: > 20 µM (active)
CC50 [12]: 11.7 µM (active)
IC50 [13]: 5.04 µM (inactive)
IC50 [14]: 0.97 µM (active)
EC50 [15]: > 35.4 µM (not active)
IC50 [16]: 6.52 µM (active)
IC50 [17]: > 20 µM (inactive)
AC50 [3]: 24.8 µM (active)

N#C/C(=N/Nc1ccc([N+](=O)[O-])cc1)C(=N)N1CCCCC1
IC50 [18]: > 67.5 µM (inactive)
IC50 [19]: > 67.5 µM (inactive)

Reference: ChEMBL document CHEMBL1201862, “PubChem BioAssay data set” (2004)
